Measured values as given in PMC12332157, “A preclinical study on the influence of linkers in [^68Ga]Ga-NOTA-X-RM26 radiotracers for PET imaging of GRPR expression” (EJNMMI Research, 2025).

How the values were obtained:
[1] = Octanol-water distribution coefficient (LogD); format: physicochemical; settings: n-octanol/PBS; n = 3; mean ± sd
Experimental: Octanol-water distribution coefficient (LogD) was determined by adding 10 pmol of radiopeptide to an Eppendorf tube containing 500 µL of phosphate-buffered saline (PBS) and 500 µL of n-octanol. Each tube was vortexed for 2 min and centrifuged at 6000 g for 5 min. Three 100 µL fractions were collected from each phase, and their radioactivity was measured.

[2] = parameters: method as in PMID 25684649; settings: same time point (2 h), 40 pmol; cited from earlier work

## CC(C)C[C@H](NC(=O)C[C@H](O)[C@H](CC(C)C)NC(=O)[C@H](Cc1c[nH]cn1)NC(=O)CNC(=O)[C@@H](NC(=O)[C@H](C)NC(=O)[C@H](Cc1c[nH]c2ccccc12)NC(=O)[C@H](CCC(N)=O)NC(=O)[C@@H](Cc1ccccc1)NC(=O)COCCOCCNC(=O)CN1CCN(CC(=O)O)CCN(CC(=O)O)CC1)C(C)C)C(N)=O [[^68Ga]Ga-NOTA-PEG2-RM26, metal not drawn]
[1]
  logD: -1.43 ± 0.01
[2]
  accumulation in the kidneys: 1.9 ± 0.3 %IA/g
  accumulation in the liver: 1 ± 0.1 %IA/g
  accumulation in the lungs: 0.17 ± 0.03 %IA/g
  tissue uptake, pancreas: 1.9 ± 0.1 %IA/g
  tissue uptake, small intestine: 0.6 ± 0.1 %IA/g
  tissue uptake, stomach: 1.4 ± 0.2 %IA/g
  tissue uptake, tumor: 5.4 ± 1 %IA/g
